The structures appear in SMILES notation.

In the case of `COc1ccc(-c2nc(NC(C)=O)sc2-c2ccnc(N)c2)cc1` [Example Compound 50, N-[5-(2-amino-4-pyridyl)-4-(4-methoxyphenyl)-1,3-thiazol-2-yl]acetamide], the melting point – broadly, the temperature, or range, at which the solid turns liquid – is 247 to 250 °C.
Then `Cc1cc(C)cc(-c2nc(-c3ccc([S+](C)[O-])cc3)sc2-c2cc(C)nc(C)c2)c1` (stereo not shown) [Example Compound 56-2, 4-(3,5-dimethylphenyl)-5-(2,6-dimethyl-4-pyridyl)-2-(4-methylsulfinylphenyl)-1,3-thiazole], with 151 to 154 °C; and `Cc1cccc(-c2nc(N3CCNC3=O)sc2-c2ccnc(C)c2)c1` [Example Compound 66, 1-[4-(3-methylphenyl)-5-(2-methyl-4-pyridyl)-1,3-thiazol-2-yl]imidazolidin-2-one], with 200 to 201 °C.
Then `CCc1nc(-c2cccs2)c(-c2ccnc(NC(C)=O)c2)s1` [Example Compound 30-4, N-[4-[2-ethyl-4-(2-thienyl)-1,3-thiazol-5-yl]-2-pyridyl]acetamide], with 154 to 155 °C.
`COc1ccc(C(=O)Nc2nc(-c3cccc(C)c3)c(-c3ccnc(C)c3)s2)cn1` [Example Compound 47, 6-methoxy-N-[4-(3-methylphenyl)-5-(2-methyl-4-pyridyl)-1,3-thiazol-2-yl]nicotinamide] came in with a melting point of 224 to 226 °C.
Compound `Cc1cccc(-c2nc(NC(=O)c3ccc(C)nc3)sc2-c2ccnc(NC3CCCCC3)c2)c1` [Example Compound 46-1, N-[5-(2-cyclohexylamino-4-pyridyl)-4-(3-methylphenyl)-1,3-thiazol-2-yl]-6-methylnicotinamide] came in with a melting point of 242 to 243 °C.
`CCC(=O)Nc1cc(-c2sc(-c3ccc(SC)cc3)nc2-c2cccc(C)c2)ccn1` [Example 84-9, N-[4-[4-(3-methylphenyl)-2-[4-(methylthio)phenyl]-1,3-thiazol-5-yl]-2-pyridyl]propionamide] returned a melting point of 171 to 172 °C.
Compound `COc1ccc(C(=O)Nc2nc(-c3cccc(C)c3)c(-c3ccnc(NC4CCCCC4)c3)s2)cn1` [Example Compound 48-1, N-[5-(2-cyclohexylamino-4-pyridyl)-4-(3-methylphenyl)-1,3-thiazol-2-yl]-6-methoxynicotinamide] registered a melting point of 191 to 192 °C.
Then `Cc1cccc(-c2nc(N)sc2-c2ccnc(NC3CCCCC3)c2)c1` [Example Compound 34-2, [5-(2-cyclohexylamino-4-pyridyl)-4-(3-methylphenyl)-1,3-thiazol-2-yl]amine], with 168 to 169 °C; and `Cc1cccc(-c2nc(Cc3ccccc3)sc2-c2ccnc(C)c2)c1` [Example Compound 14-7, 4-(3-methylphenyl)-5-(2-methyl-4-pyridyl)-2-(phenylmethyl)-1,3-thiazole], with 82 to 84 °C; and `CCc1nc(-c2ccc(Cl)cc2)c(-c2ccnc(NC(C)=O)c2)s1` [Example 82-6, N-[4-[4-(4-chlorophenyl)-2-ethyl-1,3-thiazol-5-yl]-2-pyridyl]acetamide], with 190 to 191 °C.
`CCc1nc(-c2cccc(C)c2)c(-c2ccnc(N3CCOCC3)c2)s1` [Example Compound 36-9, 2-ethyl-4-(3-methylphenyl)-5-(2-morpholino-4-pyridyl)-1,3-thiazole] returned a melting point of 69 to 71 °C.
Consider `CCCc1nc(-c2cccc(Cl)c2)c(-c2ccnc(NC(=O)CC)c2)s1` [Example Compound 30-9, N-[4-[4-(3-chlorophenyl)-2-propyl-1,3-thiazol-5-yl]-2-pyridyl]propionamide], for which the melting point was in the range of 103 to 104 °C.
Take `Cc1cccc(-c2nc(NC(=O)c3ccc(Cl)nc3)sc2-c2ccnc(C)c2)c1` [Example Compound 43, 6-chloro-N-[4-(3-methylphenyl)-5-(2-methyl-4-pyridyl)-1,3-thiazol-2-yl]nicotinamide]: the melting point is 228 to 230 °C.
In turn, `CC(=O)Nc1cc(-c2sc(-c3ccc(S(C)(=O)=O)cc3)nc2-c2cccc(C)c2)ccn1` [Example 98-1, N-[4-[4-(3-methylphenyl)-2-(4-methylsulfonylphenyl)-1,3-thiazol-5-yl]-2-pyridyl]acetamide] showed a melting point of 222 to 223 °C.
Take `CCC(=O)Nc1cc(-c2sc(CC)nc2-c2cccc(C(F)(F)F)c2)ccn1` [Example 84-3, N-[4-[2-ethyl-4-(3-trifluoromethylphenyl)-1,3-thiazol-5-yl]-2-pyridyl]propionamide]: the melting point was in the range of 126 to 127 °C.
`CCC(=O)Nc1cc(-c2sc(CCSC)nc2-c2cccc(Cl)c2)ccn1` [Example 102-2, N-[4-[4-(3-chlorophenyl)-2-[2-(methylthio)ethyl]-1,3-thiazol-5-yl]-2-pyridyl]propionamide] gave a melting point of 91 to 92 °C.
Compound `Cc1cc(C)cc(-c2nc(-c3ccc([S+](C)[O-])cc3)sc2-c2ccnc(C)c2)c1` (stereo not shown) [Example Compound 56-1, 4-(3,5-dimethylphenyl)-5-(2-methyl-4-pyridyl)-2-(4-methylsulfinylphenyl)-1,3-thiazole] gave a melting point of 151 to 153 °C.
Then `CCC(=O)Nc1cc(-c2sc(C(C)(F)F)nc2-c2cccc(Cl)c2)ccn1` [Example 102-4, N-[4-[4-(3-chlorophenyl)-2-(1,1-difluoroethyl)-1,3-thiazol-5-yl]-2-pyridyl]propionamide], with 141 to 142 °C; and `CCC(=O)Nc1cc(-c2sc(CC)nc2-c2cccc(Cl)c2)ccn1` [Example Compound 30-8, N-[4-[4-(3-chlorophenyl)-2-ethyl-1,3-thiazol-5-yl]-2-pyridyl]propionamide], with 132 to 133 °C; and `CCc1nc(-c2cccc(Cl)c2)c(-c2ccnc(NC(C)=O)c2)s1` [Example Compound 30-2, N-[4-[4-(3-chlorophenyl)-2-ethyl-1,3-thiazol-5-yl]-2-pyridyl]acetamide], with 149 to 150 °C.
Compound `CSCc1nc(-c2cccc(C)c2)c(-c2ccnc(N)c2)s1` [Example 113-1, 4-[4-(3-methylphenyl)-2-(methylthio)methyl-1,3-thiazol-5-yl]-2-pyridylamine] showed a melting point of 113 to 114 °C.
In the case of `Cc1cccc(-c2nc(-c3ccc(S(C)(=O)=O)cc3)sc2-c2ccnc(NC3CCCC3)c2)c1` [Example Compound 36-7, N-cyclopentyl-4-[4-(3-methylphenyl)-2-(4-methylsulfonylphenyl)-1,3-thiazol-5-yl]-2-pyridylamine], the melting point lay in the range of 154 to 156 °C.
The compound `Cc1cccc(-c2nc(C)sc2-c2ccnc(N)c2)c1` [Example Compound 23-1, 4-[2-methyl-4-(3-methylphenyl)-1,3-thiazol-5-yl]-2-pyridylamine] showed a melting point of 152 to 153 °C.
In turn, `Cc1cccc(-c2nc(-c3ccc(Cl)cc3)sc2-c2ccnc(C)c2)c1` [Example Compound 14-2, 2-(4-chlorophenyl)-4-(3-methylphenyl)-5-(2-methyl-4-pyridyl)-1,3-thiazole] returned a melting point of 104 to 105 °C.
The compound `Cc1cccc(-c2nc(-c3ccc(S(C)(=O)=O)cc3)sc2-c2ccnc(N3CCCC3)c2)c1` [Example Compound 37-4, 4-(3-methylphenyl)-2-(4-methylsulfonylphenyl)-5-[2-(1-pyrrolidinyl)-4-pyridyl]-1,3-thiazole] had a melting point of 199 to 201 °C.
The compound `CC(=O)Nc1cc(-c2sc(C3CCN(C(C)=O)CC3)nc2-c2cccc(Cl)c2)ccn1` [Example 93, N-[4-[2-(1-acetylpiperidin-4-yl)-4-(3-chlorophenyl)-1,3-thiazol-5-yl]-2-pyridyl]acetamide] showed a melting point of 160 to 161 °C.
`CCCC(=O)Nc1cc(-c2sc(CC)nc2-c2cccc(Cl)c2)ccn1` [Example 86, N-[4-[4-(3-chlorophenyl)-2-ethyl-1,3-thiazol-5-yl]-2-pyridyl]butyramide] registered a melting point of 119 to 120 °C.
`CCc1nc(-c2cccc(Br)c2)c(-c2ccnc(NC(=O)OC(C)(C)C)c2)s1` [Example Compound 75-1, 4-(3-bromophenyl)-5-[2-(tert-butoxycarbonylamino)-4-pyridyl]-2-ethyl-1,3-thiazole] had a melting point of 172 to 174 °C.
Compound `Cc1cccc(-c2nc(-c3ccccc3F)sc2-c2ccnc(C)c2)c1` [Example Compound 14-3, 2-(2-fluorophenyl)-4-(3-methylphenyl)-5-(2-methyl-4-pyridyl)-1,3-thiazole] showed a melting point of 73 to 74 °C.
Compound `COc1cccc(-c2nc(N)sc2-c2ccnc(F)c2)c1` [Example Compound 7-1, [5-(2-fluoro-4-pyridyl)-4-(3-methoxyphenyl)-1,3-thiazol-2-yl]amine] showed a melting point of 190 to 191 °C.
Regarding `CCc1nc(-c2cccc(Br)c2)c(-c2ccnc(N)c2)s1` [Example Compound 75-2, 4-[4-(3-bromophenyl)-2-ethyl-1,3-thiazol-5-yl]-2-pyridylamine], the melting point is 132 to 134 °C.
With `Cc1cccc(-c2nc(NC(=O)Nc3ccccc3)sc2-c2ccnc(NC3CCCC3)c2)c1` [Example Compound 53-3, N-[5-(2-cyclopentylamino-4-pyridyl)-4-(3-methylphenyl)-1,3-thiazol-2-yl]-N′-phenylurea], the melting point fell in the range of 188 to 190 °C.
The compound `CCc1nc(-c2ccc(Cl)cc2)c(-c2ccnc(NC(=O)CC3CCCC3)c2)s1` [Example 90-2, N-[4-[4-(4-chlorophenyl)-2-ethyl-1,3-thiazol-5-yl]-2-pyridyl]cyclopentylacetamide] yielded a melting point of 149 to 150 °C.
Then `Cc1cccc(-c2nc(CCc3ccccc3)sc2-c2ccnc(C)c2)c1` [Example Compound 14-8, 4-(3-methylphenyl)-5-(2-methyl-4-pyridyl)-2-(2-phenylethyl)-1,3-thiazole], with 64 to 65 °C; and `CC(C)(C)C(=O)Nc1cc(-c2sc(-c3ccc(S(C)(=O)=O)cc3)nc2-c2cccc(Cl)c2)ccn1` [Example Compound 58-8, N-[4-[4-(3-chlorophenyl)-2-(4-methylsulfonylphenyl)-1,3-thiazol-5-yl]-2-pyridyl]pivalamide], with 122 to 123 °C.
`CCc1nc(-c2cccc(F)c2)c(-c2ccnc(NC(C)=O)c2)s1` [Example 82-5, N-[4-[2-ethyl-4-(3-fluorophenyl)-1,3-thiazol-5-yl]-2-pyridyl]acetamide] had a melting point of 141 to 142 °C.

These data come from US7495018B2, “Substituted 1,3-thiazole compounds, their production and use” (Takeda Pharmaceutical Company Limited, priority 2000, dated 2009).
